Reference: ChEMBL document CHEMBL4017512 (J Med Chem, 2017)

Legend:
[1] = tested on: L1210; assay: Antiproliferative activity against mouse L1210 cells; assay type: functional, cell-based
[2] = Cytotoxicity against human HCT116/VM46 cells assessed as reduction in cell viability; assay type: cell-based; conditions: HCT-116/VM46
[3] = Antiproliferative activity against human HCT116/VP35 cells after 72 hrs by phosphatase assay; assay type: functional, cell-based; conditions: HCT-116, 72 h
[4] = tested on: L1210; assay: Antiproliferative activity against mouse L1210 cells after 72 hrs by phosphatase assay; assay type: functional, cell-based; conditions: L1210, 72 h
[5] = tested on: PA-1; assay: Antiproliferative activity against human PA1 cells after 72 hrs by phosphatase assay; assay type: functional, cell-based; conditions: PA-1, 72 h
[6] = tested on: MDA-MB-468; assay: Antiproliferative activity against human MDA-MB-468 cells after 72 hrs by phosphatase assay; assay type: functional, cell-based; conditions: MDA-MB-468, 72 h
[7] = tested on: LS174T; assay: Antiproliferative activity against human LS174T cells after 72 hrs by phosphatase assay; assay type: functional, cell-based
[8] = tested on: NCI-H520; assay: Antiproliferative activity against human NCI-H520 cells after 72 hrs by phosphatase assay; assay type: functional, cell-based; conditions: NCI-H520, 72 h
[9] = tested on: HCT-116; assay: Antiproliferative activity against human HCT116 cells after 72 hrs by phosphatase assay; assay type: functional, cell-based; conditions: HCT-116, 72 h
[10] = tested on: LNCaP; assay: Antiproliferative activity against human LNCAP cells after 72 hrs by phosphatase assay; assay type: functional, cell-based
[11] = Cytotoxicity against human HCT116/VM46 cells assessed as reduction in cell viability after 72 hrs by phosphatase assay; assay type: cell-based; conditions: HCT-116/VM46, 72 h
[12] = Displacement of BODIPY-labeled vinblastine from tubulin (unknown origin) at 18 uM after 60 mins by fluorescence assay relative to control; conditions: Homo sapiens
[13] = tested on: HCT-116; assay: Antiproliferative activity against human HCT116 cells; assay type: functional, cell-based
[14] = Apparent permeability from basolateral to apical side in human Caco2 cells; assay type: ADME, cell-based; conditions: Caco-2
[15] = biological target: MDR1 (ABCB1, P-gp) ATPase (Homo sapiens, UniProt P08183); assay: Inhibition of MDR1 (unknown origin) ATPase activity expressed in sf9 cell membranes assessed as residual activity at 20 uM using ATP as substrate preincubated for 5 mins followed by substrate addition measured after 20 mins by spectrophotometric method relative to control; conditions: Sf9 cell membranes expressing MDR1, probe ATP, read-out: Activity
Sequence of MDR1 (ABCB1, P-gp) ATPase (P08183 whole entry): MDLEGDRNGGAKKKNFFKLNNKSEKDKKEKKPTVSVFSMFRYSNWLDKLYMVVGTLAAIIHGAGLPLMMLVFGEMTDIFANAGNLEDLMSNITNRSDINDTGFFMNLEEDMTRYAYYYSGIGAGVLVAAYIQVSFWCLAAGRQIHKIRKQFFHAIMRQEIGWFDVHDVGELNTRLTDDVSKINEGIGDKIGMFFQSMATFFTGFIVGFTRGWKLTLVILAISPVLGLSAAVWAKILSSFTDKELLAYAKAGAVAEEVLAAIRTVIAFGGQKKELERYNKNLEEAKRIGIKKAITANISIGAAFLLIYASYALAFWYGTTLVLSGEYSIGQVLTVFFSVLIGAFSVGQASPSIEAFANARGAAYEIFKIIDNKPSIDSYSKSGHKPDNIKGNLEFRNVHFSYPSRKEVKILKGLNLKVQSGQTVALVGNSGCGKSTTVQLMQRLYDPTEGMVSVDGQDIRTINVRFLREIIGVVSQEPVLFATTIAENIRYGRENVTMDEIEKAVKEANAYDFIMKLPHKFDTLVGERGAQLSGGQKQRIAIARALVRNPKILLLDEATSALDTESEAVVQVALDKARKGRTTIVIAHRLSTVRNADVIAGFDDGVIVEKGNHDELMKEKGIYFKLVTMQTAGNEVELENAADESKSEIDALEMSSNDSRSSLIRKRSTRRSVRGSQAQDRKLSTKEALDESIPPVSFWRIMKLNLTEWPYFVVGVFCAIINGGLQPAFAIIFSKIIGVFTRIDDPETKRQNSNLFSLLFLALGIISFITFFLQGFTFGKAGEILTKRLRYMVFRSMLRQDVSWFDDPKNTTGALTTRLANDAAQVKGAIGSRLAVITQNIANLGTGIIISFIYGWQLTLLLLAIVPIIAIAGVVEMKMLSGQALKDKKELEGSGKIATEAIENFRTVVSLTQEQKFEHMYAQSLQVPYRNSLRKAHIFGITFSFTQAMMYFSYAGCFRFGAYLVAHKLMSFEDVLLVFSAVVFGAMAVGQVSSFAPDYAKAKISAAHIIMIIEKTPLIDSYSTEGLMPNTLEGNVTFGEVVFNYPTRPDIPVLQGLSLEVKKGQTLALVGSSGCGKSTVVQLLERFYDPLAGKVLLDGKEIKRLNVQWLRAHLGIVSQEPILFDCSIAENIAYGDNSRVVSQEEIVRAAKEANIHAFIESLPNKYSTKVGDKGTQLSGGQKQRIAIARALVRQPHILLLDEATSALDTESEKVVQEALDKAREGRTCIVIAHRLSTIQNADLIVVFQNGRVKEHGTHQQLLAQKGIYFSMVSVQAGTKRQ

Question: What does the source list for `CC[C@]1(NC=O)C[C@H]2CN(CCc3c([nH]c4ccccc34)[C@@](C(=O)OC)(c3cc4c(cc3OC)N(C)[C@H]3[C@@](O)(C(=O)OC)[C@H](OC(C)=O)[C@]5(CC)C=CCN6CC[C@]43[C@@H]65)C2)C1`?
Answer: IC50 [1]: 65 nM; IC50 [2]: 6500 nM

Question: Which IC50 [3] does the source give for `CC[C@]1(NC(=O)c2ccc(C)c(C)c2)C[C@H]2CN(CCc3c([nH]c4ccccc34)[C@@](C(=O)OC)(c3cc4c(cc3OC)N(C)[C@H]3[C@@](O)(C(=O)OC)[C@H](OC(C)=O)[C@]5(CC)C=CCN6CC[C@]43[C@@H]65)C2)C1` here?
Answer: Its IC50 is 5.8 nM.

Question: What about the IC50 [4] of the same molecule?
Answer: Its IC50 is 3 nM.

Question: And the IC50 [5]?
Answer: The IC50 was 2.3 nM.

Question: And the IC50 [6]?
Answer: Its IC50 is 4.8 nM.

Question: And the IC50 [7]?
Answer: Its IC50 is 6.1 nM.

Question: And the IC50 [8]?
Answer: The IC50 was 1.4 nM.

Question: And the IC50 [9]?
Answer: Its IC50 is 4.5 to 4.6 nM.

Question: What about the IC50 [10] of the same molecule?
Answer: The IC50 was 3 nM.

Question: And the IC50 [11]?
Answer: Its IC50 is 7.6 to 9 nM.

Question: What about the inhibition [12] of the same molecule?
Answer: The inhibition was 67%.

Question: With `CC[C@]1(NC(=O)C(F)(F)F)C[C@H]2CN(CCc3c([nH]c4ccccc34)[C@@](C(=O)OC)(c3cc4c(cc3OC)N(C)[C@H]3[C@@](O)(C(=O)OC)[C@H](OC(C)=O)[C@]5(CC)C=CCN6CC[C@]43[C@@H]65)C2)C1` as the molecule, how does the IC50 [13] read?
Answer: The IC50 was 690 nM.

Question: And the IC50 [1]?
Answer: The IC50 was 660 nM.

Question: What about the IC50 [2] of the same molecule?
Answer: Its IC50 is 8100 nM.

Question: With `CC[C@]1(O)C[C@@H]2CN(CCc3c([nH]c4ccccc34)[C@@](C(=O)OC)(c3cc4c(cc3OC)N(C)[C@H]3[C@@](O)(C(=O)OC)[C@H](OC(C)=O)[C@]5(CC)C=CCN6CC[C@]43[C@@H]65)C2)C1` [VINBLASTINE] as the molecule, how does the IC50 [3] read?
Answer: The IC50 was 37 nM.

Question: And the Papp B→A [14]?
Answer: The Papp B→A was 38.2 ×10⁻⁶ cm/s.

Question: And the activity at 20 min, 20 µM [15]?
Answer: Its activity at 20 min, 20 µM is 87%.

Question: What about the IC50 [6] of the same molecule?
Answer: The IC50 was 14 nM.

Question: What about the IC50 [7] of the same molecule?
Answer: Its IC50 is 20 nM.

Question: And the IC50 [10]?
Answer: The IC50 was 5.1 nM.

Question: And the IC50 [11]?
Answer: The IC50 was 110 to 600 nM.

Question: And the inhibition [12]?
Answer: Its inhibition is 50 to 61%.

Question: For `CC[C@]1(NC(C)=O)C[C@H]2CN(CCc3c([nH]c4ccccc34)[C@@](C(=O)OC)(c3cc4c(cc3OC)N(C)[C@H]3[C@@](O)(C(=O)OC)[C@H](OC(C)=O)[C@]5(CC)C=CCN6CC[C@]43[C@@H]65)C2)C1`, which IC50 [1] is on record?
Answer: Its IC50 is 65 nM.

Question: And the IC50 [2]?
Answer: The IC50 was 7500 nM.

Question: Which IC50 [3] does the source give for `CC[C@]1(NC(=O)c2ccc3c(c2)CCCC3)C[C@H]2CN(CCc3c([nH]c4ccccc34)[C@@](C(=O)OC)(c3cc4c(cc3OC)N(C)[C@H]3[C@@](O)(C(=O)OC)[C@H](OC(C)=O)[C@]5(CC)C=CCN6CC[C@]43[C@@H]65)C2)C1` here?
Answer: The IC50 was 6.2 nM.

Question: And the IC50 [4]?
Answer: The IC50 was 3.3 nM.

Question: What about the Papp B→A [14] of the same molecule?
Answer: The Papp B→A was 2 ×10⁻⁶ cm/s.

Question: And the IC50 [5]?
Answer: Its IC50 is 2.6 nM.

Question: What about the activity at 20 min, 20 µM [15] of the same molecule?
Answer: The activity at 20 min, 20 µM was 0%.

Question: And the IC50 [6]?
Answer: The IC50 was 6.3 nM.

Question: What about the IC50 [7] of the same molecule?
Answer: Its IC50 is 6.6 nM.

Question: What about the IC50 [8] of the same molecule?
Answer: Its IC50 is 1.8 nM.

Question: What about the IC50 [9] of the same molecule?
Answer: Its IC50 is 4.9 nM.

Question: What about the IC50 [10] of the same molecule?
Answer: The IC50 was 3.9 nM.

Question: And the IC50 [11]?
Answer: Its IC50 is 8.7 to 14 nM.

Question: What about the inhibition [12] of the same molecule?
Answer: Its inhibition is 63%.

Question: What does the source list for `CC[C@]1(NC(=O)c2ccc3c(c2)CCCO3)C[C@H]2CN(CCc3c([nH]c4ccccc34)[C@@](C(=O)OC)(c3cc4c(cc3OC)N(C)[C@H]3[C@@](O)(C(=O)OC)[C@H](OC(C)=O)[C@]5(CC)C=CCN6CC[C@]43[C@@H]65)C2)C1`?
Answer: IC50 [3]: 1.4 nM; IC50 [4]: 0.4 nM; IC50 [5]: 1 nM; IC50 [6]: 1.2 nM; IC50 [7]: 2.4 nM; IC50 [8]: 0.8 nM; IC50 [9]: 0.5 to 0.7 nM; IC50 [10]: 0.8 nM; IC50 [11]: 1.8 to 4.9 nM; inhibition [12]: 98%

Question: Which IC50 [3] does the source give for `CC(=O)O[C@H]1C(=O)[C@@]2(C)[C@H]([C@H](OC(=O)c3ccccc3)[C@]3(O)C[C@H](OC(=O)[C@H](O)[C@@H](NC(=O)c4ccccc4)c4ccccc4)C(C)=C1C3(C)C)[C@]1(OC(C)=O)CO[C@@H]1C[C@@H]2O` [PACLITAXEL] here?
Answer: Its IC50 is 6.3 nM.

Question: And the IC50 [5]?
Answer: The IC50 was 3 nM.

Question: What about the IC50 [6] of the same molecule?
Answer: The IC50 was 5.4 nM.

Question: And the IC50 [7]?
Answer: The IC50 was 9.5 nM.

Question: And the IC50 [8]?
Answer: The IC50 was 8.2 nM.

Question: What about the IC50 [9] of the same molecule?
Answer: Its IC50 is 4.1 nM.

Question: What about the IC50 [10] of the same molecule?
Answer: Its IC50 is 1.9 nM.

Question: And the IC50 [11]?
Answer: Its IC50 is > 200 nM.
